This is an account of results in US6989242B1, “Car receptors and related molecules and methods” (The General Hospital Coporation, priority 1992, dated 2006).

One data set deals with TR/CAR chimera. In words: Cotransfection of TR/CAR chimera with T3RE reporter, effect of added ligands. It counts as cell-based, human. The note with it: JEG3 cells, charcoal-treated serum. The text has this: To study the function of the putative ligand binding domain of the orphan, a chimeric receptor consisting of the C-terminal D, E and F domains of CAR (i.e., approximately amino acids 76-172, 173-319, and 320-348 of the CAR sequence, respectively) fused to the N-terminal A/B and C domains of TRβ was generated (termed TR/CAR), along with a control hybrid with the A/B and C domains of TR and the D, E and F domain of the glucocorticoid receptor (TR/GR). Vectors expressing these chimeras or the intact TR were cotransfected into JEG3 cells (ATCC Accession No: HTB 36) with reporter plasmids containing T3REs (i.e., of sequence […]; SEQ ID NO: 3) or GREs (from the MMTV promoter as described in Chandler et al., Cell 33:489, 1989) upstream of a reporter gene whose expression could be assayed. Transfections were carried out in the presence of serum treated with activated charcoal to remove T3 as well as other low molecular weight hydrophobic compounds that could act as CAR ligands.

Another data set has as its target T1, CAR (Homo sapiens, UniProt Q14994).
T1 construct: expressed in transfected cells
T1 sequence (Q14994 1-348 isoform Q14994-2): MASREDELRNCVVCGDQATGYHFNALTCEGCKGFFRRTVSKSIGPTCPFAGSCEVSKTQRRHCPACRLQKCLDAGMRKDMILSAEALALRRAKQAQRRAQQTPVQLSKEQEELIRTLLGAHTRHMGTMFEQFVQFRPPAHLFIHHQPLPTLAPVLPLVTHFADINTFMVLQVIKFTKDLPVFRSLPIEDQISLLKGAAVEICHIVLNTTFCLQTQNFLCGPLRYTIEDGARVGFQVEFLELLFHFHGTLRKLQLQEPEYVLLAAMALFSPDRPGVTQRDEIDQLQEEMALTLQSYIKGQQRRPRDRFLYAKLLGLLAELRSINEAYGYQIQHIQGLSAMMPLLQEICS
The experiment in a line: Activation of the RARβ element by CAR in cotransfections, effect of protein kinase A/C pathway treatments. It counts as cell-based. The note with it: cotransfection. The text has this:
Based on the constitutive activity of the TR/CAR chimera and the similarity of the DNA binding domain of CAR to other members of the superfamily, a number of response elements were screened for activation by the intact orphan in standard cotransfections. […] However, CAR did transactivate two wild type elements, the RAREs from the RARβ gene and the alcohol dehydrogenase (ADH) gene (i.e., […]; SEQ ID NO: 5). RAREs which were not transactivated by CAR included a potent up mutant version of the rat growth hormone gene T3RE/RARE (i.e., of sequence […]; SEQ ID NO:6; in tandem copies with the second copy inverted; described in Brent et al., Mol. Endocrinol. 3:1996, 1989) and the wild type version of the laminin T3RE/RARE (i.e., of sequence […]; SEQ ID NO: 8).
The activation of the RARβ element by CAR is not affected by several treatments that activate or inactivate signal transduction pathways mediated by protein kinases A or C. Thus, CAR activation was not altered by addition of dibutyryl cyclic AMP, by short or long term treatments with phorbol esters, or by cotransfections with vectors expressing the specific protein kinase A inhibitor peptide.

A further data set concerns βRARE. The experiment in a line: Transactivation of βRARE-TK luciferase reporter in cotransfected HepG2 cells. Conditions: various cell types and conditions, no added ligand. It counts as cell-based, human. The text has this:
To determine whether mCAR1 transactivated the βRARE in the absence of retinoids or any other exogenously added ligands, this construct was cotransfected with a luciferase reporter plasmid in which 3 copies of the βRARE were inserted upstream of the TK promoter. To carry out these experiments, HepG2 cells were maintained and transfected using calcium phosphate or DEAE dextran (Ausubel et al., Current Protocols in Molecular Biology, Greene Pub. Assoc.: New York, 1997). mCAR1 and mCAR2 expression vectors were generated by inserting appropriate fragments into the vector CDM8 (Seed, Nature 329:840-842, 1987), as previously described for hCAR. The luciferase reporter plasmid (Gulick et al., Proc. Natl. Acad. Sci. USA 91:11012-11016, 1994) contained three copies of the βRARE upstream of the TK promoter. The reporter plasmids with wild type and mutant versions of the RARβ2 promoter have been described (Moghal et al., Mol. Cell. Biol. 15:3945-3959, 1995). […]
For the TK reporter, pairs of 30 mm dishes were each transfected with 2 μg of reporter and pTKGH, and a total of 2 μg of mammalian expression vector. […] Transfections were carried out in media containing 10% charcoal stripped serum, and luciferase activity was determined using the Promega luciferase assay system as described by the manufacturer. […]
(In general: Reporter assays use an easily measured gene product as a stand-in for the process of interest.)

Data set [1] concerns the target T2, mCAR2 (splice variant lacking exon 8, 107 bp out-of-frame deletion; 6 new residues replace last 78 of mCAR1) (Mus musculus, UniProt O35627-2 O35627-2:1-286).
T2 sequence: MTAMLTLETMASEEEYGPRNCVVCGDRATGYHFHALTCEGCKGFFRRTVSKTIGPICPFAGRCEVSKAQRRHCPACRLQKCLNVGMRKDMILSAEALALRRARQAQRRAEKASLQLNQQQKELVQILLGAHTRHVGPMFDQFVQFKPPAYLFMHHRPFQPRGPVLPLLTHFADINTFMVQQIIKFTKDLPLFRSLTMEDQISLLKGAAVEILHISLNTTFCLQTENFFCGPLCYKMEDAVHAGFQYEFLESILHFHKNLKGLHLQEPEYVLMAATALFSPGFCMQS
In words: EMSA; alone. Conditions: tags: GenBank variant of mCAR1. The text has this:
(§1) FIG. 7 is a photograph showing DNA binding by mCAR1 and mCAR2. mCAR1, mCAR2, RXR, and RAR proteins were expressed by in vitro translation and used for electrophoretic mobility shift assays with a βRARE probe as indicated. "S" indicates competition with the βRARE oligonucleotide, and "NS" competition with a nonspecific oligonucleotide. Equivalent amounts of mCAR1, mCAR2, and RAR were used in the binding reactions, as determined by ^35S-methionine labeling.
(§2) For DNA binding studies, mCAR1, mCAR2, RAR, and RXR proteins were expressed using coupled in vitro transcription and translation (Promega, Inc.). Standard conditions were used for electrophoretic mobility shift assays with the DR-5 response element from the RARβ2 promoter (the βRARE) as the probe, as described for hCAR (MB67). In these experiments, mCAR1/RXR heterodimers bound with high affinity to the RARE from the RARβ2 isoform promoter (Sucov et al., Proc. Natl. Acad. Sci. USA 87:5392–5396, 1990; de The et al., Nature 343:177–180, 1990) (FIG. 7). […] This lack of mCAR2 binding was consistent with the absence of the C-terminal portion of the ligand/dimerization domain, which is essential for heterodimerization.

In a further data set the target is RAR + RXR (UniProt P10276;P19793 P10276:1-462,P19793:1-462). The experiment in a line: EMSA. The note with it: chain copies: heterodimer (stated).
Text: as §1, §2
On the technique in general: A gel shift assay detects complexes by their altered migration in electrophoresis.

The next data set concerns the target mCAR1 + RXR (Mus musculus, UniProt O35627;P19793 O35627:1-358,P19793:1-462). In words: EMSA; high affinity; indistinguishable from RAR/RXR. Conditions: chain copies: heterodimer (stated).
Text: as §1, §2

The target of a further data set is mCAR2 + RXR (Mus musculus, UniProt O35627-2;P19793 O35627-2:1-286,P19793:1-462). The experiment in a line: EMSA; with RXR.
Text: as §1, §2

Sequence of mCAR1 + RXR (P19793 whole entry, one chain of several): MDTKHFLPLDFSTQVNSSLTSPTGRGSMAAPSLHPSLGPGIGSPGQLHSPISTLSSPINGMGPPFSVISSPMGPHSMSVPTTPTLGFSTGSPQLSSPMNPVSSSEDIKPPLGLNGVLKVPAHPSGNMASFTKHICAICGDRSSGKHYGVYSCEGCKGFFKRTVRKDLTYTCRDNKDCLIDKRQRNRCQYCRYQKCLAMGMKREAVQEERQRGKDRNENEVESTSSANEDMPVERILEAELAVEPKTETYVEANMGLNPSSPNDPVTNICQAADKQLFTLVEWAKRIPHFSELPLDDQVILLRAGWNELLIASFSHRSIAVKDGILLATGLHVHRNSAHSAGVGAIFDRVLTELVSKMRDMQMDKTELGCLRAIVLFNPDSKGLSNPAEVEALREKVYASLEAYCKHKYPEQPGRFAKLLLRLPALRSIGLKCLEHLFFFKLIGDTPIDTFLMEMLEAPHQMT
Sequence of mCAR2 + RXR (P19793 whole entry, one chain of several): as above
Sequence of RAR + RXR (P10276 whole entry, chain 1 of 2): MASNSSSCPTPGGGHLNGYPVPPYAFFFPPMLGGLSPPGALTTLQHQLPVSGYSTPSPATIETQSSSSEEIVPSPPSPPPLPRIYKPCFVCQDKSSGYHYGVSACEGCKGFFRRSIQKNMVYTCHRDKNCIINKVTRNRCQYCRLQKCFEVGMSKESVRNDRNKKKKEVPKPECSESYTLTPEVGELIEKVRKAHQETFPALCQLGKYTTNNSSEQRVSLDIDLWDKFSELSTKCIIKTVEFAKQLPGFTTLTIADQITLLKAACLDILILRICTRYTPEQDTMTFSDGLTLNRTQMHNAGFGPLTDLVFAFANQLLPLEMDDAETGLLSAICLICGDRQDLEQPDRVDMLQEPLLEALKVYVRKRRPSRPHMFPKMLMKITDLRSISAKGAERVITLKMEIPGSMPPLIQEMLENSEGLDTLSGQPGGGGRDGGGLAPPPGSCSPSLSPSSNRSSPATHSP
Sequence of RAR + RXR (P19793 whole entry, chain 2 of 2): as the sequence (P19793 whole entry, one chain of several) above

Turning to `N[C@@H](Cc1cc(I)c(Oc2ccc(O)c(I)c2)c(I)c1)C(=O)O` [T3], in the data set on TR/CAR chimera, the “effect of added ligand on ligand-independent activation of T3RE reporter by TR/CAR chimera” value (“effect of added ligand” below) is “not altered”.
On to `CC1=C(/C=C/C(C)=C/C=C/C(C)=C/C(=O)O)C(C)(C)CCC1` [resinoid acid], for which the “effect of added ligand” value in the data set on TR/CAR chimera is given as “not altered”.
On to `CCCC(=O)Nc1ncnc2c1ncn2[C@@H]1O[C@@H]2COP(=O)(O)O[C@H]2[C@H]1OC(=O)CCC` [dibutyryl cyclic AMP], for which the “effect on CAR activation of the RARβ element” value at CAR is “not altered”.
Take `C[C@]12CC[C@@H]3c4ccc(O)cc4CC[C@H]3[C@@H]1CC[C@@H]2O` [astraddle]: the “effect of added ligand” value in the data set with TR/CAR chimera is on record as “not altered”.
Same read-out and setting: the entry for `C[C@]12CC[C@H]3[C@@H](CCC4=CC(=O)CC[C@@]43C)[C@@H]1CC[C@@H]2O` [testosterone] is “not altered”; for `C[C@H](CCCC(C)(C)O)[C@H]1CC[C@H]2[C@@H]3CC=C4C[C@@H](O)CC[C@]4(C)[C@H]3CC[C@]12C` [25-hydroxy cholesterol] it is “not altered”.

B1: hCAR: human CAR receptor, 348 amino acids, SEQ ID NO:10 (protein, listed as Homo sapiens)
chain: T1 sequence (Q14994 1-348 isoform Q14994-2)
Take B1: in the data set with βRARE, the “transactivation of βRARE reporter” value was 20-100 fold.

B2: betaRARE (RARbeta2 promoter DR-5) (dsDNA)
DNA 1: GGGTAGGGTTCACCGAAAGTTCACTCG
DNA 2: CGAGTGAACTTTCGGTGAACCCTACCC
As to B2, the binding result in data set [1] is recorded as “no binding”; with RAR + RXR it was “binds”; with mCAR1 + RXR it was “binds”; with mCAR2 + RXR, “no binding”.
